Results published in PMC9481570, “A small molecule antagonist of SMN disrupts the interaction between SMN and RNAP II” (Nature Communications, 2022).

System: GEMIN6
Assay: AP-MS chemical proteomics, GEMIN6
Type: binding, human
Protocol: The samples for AP-MS were prepared following pulldown procedure as previously described with minor modifications. Briefly, U2OS cells were lysed in RIPA buffer and the cell lysate was equally divided into two groups: (1) DMSO group (control group): the cell lysate was incubated with 20 μM biotin-labeled compound 1; (2) Cpmd 1 group (sample group): the cell lysate was incubated with 20 μM biotin-labeled compound 1 and 200 μM free compound 1. Each group contains three biological replicates. They were incubated overnight at 4 °C, then 30 μL streptavidin beads (Thermo Fisher, 20353) was added and incubated at 4 °C for 1 h. The beads were then washed with RIPA buffer for 3 times, 10 min/time. […]
Samples were analyzed by nanoLC-MS/MS (nanoRSLC, Thermo Fisher) using an Aurora series (Ion Opticks) reversed phase HPLC column (25 cm length × 75 µm inner diameter) and directly injected to an Orbitrap Eclipse (Thermo Fisher) using a 120 min gradient (mobile phase A = 0.1% formic acid, mobile phase B = 99.9% acetonitrile with 0.1% formic acid; hold 2% B for 5 min, 2–6% B in 0.1 min, 6–25% in 100 min, 25–50% in 15 min) at a flow rate of 350 nL/min. Eluted peptide ions were analyzed using a data-dependent acquisition (DDA) method with resolution settings of 120,000 and 15,000 (at m/z 200) for MS1 and MS2 scans, respectively. […]

With `Cn1c2c(c(=N)c3c1CCC3)CCC2` [Compound 1, 4-methyl-2,3,4,5,6,7-hexahydrodicyclopenta[b,e]pyridin-8(1H)-imine] the Difference (GN=GEMIN6 (Q8WXD5), Cmpd minus DMSO, -LOG(P-value) 2.19893) was -5.406 and the “log2 FC (Cmpd 1/DMSO), GEMIN6” value (biotin-Cmpd 1 pulldown, competition with 200 μM compound 1 relative to DMSO, U2OS lysate) was −5.4.
